Marks after values point to notes of the source that are not given here.
Assays:
Type in all cases: physicochemical
[1] = Cetane number, ASTM D6890 / D613; conditions: for Cetane number: ASTM D6890
Description: “Cetane number” refers to a measure of how readily a fuel starts to burn (autoignite) under conditions described by ASTM D613 or ASTM D6890. A fuel with a high cetane number starts to burn shortly after it is injected into the cylinder; it has a short ignition delay period. Conversely, a fuel with a low cetane number resists autoignition and has a longer ignition delay period.
(§1) Fuel property testing of hydrogenated bisabolene was carried out using standard ASTM methods known to and used by those of skill in the art. Table 1 sets forth the various fuel properties analyzed for each of Diesel Fuel Grade #2, bisabolene (mixture of isomers) and hydrogenated bisabolene as well as the ASTM test methods employed to analyze the particular fuel property.

[2] = Density, ASTM D4052; conditions: ASTM D4052, 15.56° C.
Description: “Density” refers to a measure of mass per volume at a particular temperature. The generally accepted method for measuring the density of a fuel is ASTM Standard D4052, which is incorporated herein by reference.
as §1

[3] = API gravity, ASTM D4052; conditions: ASTM D4052, 15.56° C.
Description: as §1

[4] = Flash point, ASTM D93
Description: as §1

[5] = Distillation temperature, ASTM D2887 / D86
Description: as §1

[6] = Kinetic viscosity, ASTM D445; conditions: ASTM D445, 40° C.
Description: “Viscosity” refers to a measure of the resistance of a fuel or fuel composition to deform under shear stress. The generally accepted method for measuring the viscosity of a fuel is ASTM Standard D445, which is incorporated herein by reference.
as §1

[7] = Freeze point, ASTM D5972
Description: as §1

[8] = Cloud point, ASTM D5773 / D2500
Description: as §1

Which Cetane number [1] does the source give for `CC(C)CCCC(C)C1CCC(C)CC1` (stereo not shown) [Hydrogenated biosynthetic bisabolene, 1(1,5-dimethylhexyl)-4-methylcyclohexane] here?
Its Cetane number is 52.6.

Which “Density (@ 15.56° C.)” value [2] does the source give for `CC(C)CCCC(C)C1CCC(C)CC1` (stereo not shown) [Hydrogenated commercial bisabolene, 1(1,5-dimethylhexyl)-4-methylcyclohexane] here?
Its value is 819.7 kg/m^3.

And the “API Gravity (@ 15.56° C.)” value [3]?
The value was 41.

And the Flash point [4]?
Its Flash point is 111 °C.

What about the Distillation [5] of the same compound?
The Distillation was 267^d ° C.

What about the “Kinetic viscosity (@ 40° C.)” value [6] of the same compound?
Its value is 2.91 mm^2/s.

What about the Freeze point [7] of the same compound?
The Freeze point was under −81 °C.

What about the Cloud point [8] of the same compound?
Its Cloud point is under −78 °C.

What about the Cetane number [1] of the same compound?
Its Cetane number is 41.9.

For `CC(C)CCCC(C)C1CCC(C)CC1` (stereo not shown) [hydrogenated bisabolene], which “Derived Cetane Number (DCN)” value [1] is on record?
Its value is “about 42”.

Source: patent US9109175B2, “Isoprenoid based alternative diesel fuel” (The Regents of the University of California, priority 2010, dated 2015)
